In article PMC12102759 (Protein Science : A Publication of the Protein Society, 2025):

These sequences were tested on G3BP1 NFT2. Conditions: library DMS-CoV; bait G3BP1 NFT2; prey N; peptide APRITFGGPSDSTGSN; listed as aa = residue placed at this position; column sums to 1.
Format: binding, human
In the case of APRITFGGPSDSTGSN P2R (ARRITFGGPSDSTGSN), the “DMS PSSM value, P (position 2)” value was 0. For APRITFGGPSDSTGSN P2S (ASRITFGGPSDSTGSN), the “DMS PSSM value, P (position 2)” value was 0.0005858. For APRITFGGPSDSTGSN P2T (ATRITFGGPSDSTGSN), the “DMS PSSM value, P (position 2)” value was 0. APRITFGGPSDSTGSN P2V (AVRITFGGPSDSTGSN) was tested, and the “DMS PSSM value, P (position 2)” value was 0. APRITFGGPSDSTGSN P2W (AWRITFGGPSDSTGSN) was tested, and the “DMS PSSM value, P (position 2)” value was 0. In the case of APRITFGGPSDSTGSN P2Y (AYRITFGGPSDSTGSN), the “DMS PSSM value, P (position 2)” value was 0. For APRITFGGPSDSTGSN P9A (APRITFGGASDSTGSN), the “DMS PSSM value, P (position 9)” value was 0.001999. For APRITFGGPSDSTGSN P9D (APRITFGGDSDSTGSN), the “DMS PSSM value, P (position 9)” value was 0. In the case of APRITFGGPSDSTGSN P9F (APRITFGGFSDSTGSN), the “DMS PSSM value, P (position 9)” value was 0.2349. APRITFGGPSDSTGSN P9G (APRITFGGGSDSTGSN) was tested, and the “DMS PSSM value, P (position 9)” value was 0.003052. With APRITFGGPSDSTGSN P9H (APRITFGGHSDSTGSN) the “DMS PSSM value, P (position 9)” value was 0. APRITFGGPSDSTGSN P9I (APRITFGGISDSTGSN) was tested, and the “DMS PSSM value, P (position 9)” value was 0.01105. APRITFGGPSDSTGSN P9K (APRITFGGKSDSTGSN) was tested, and the “DMS PSSM value, P (position 9)” value was 0. With APRITFGGPSDSTGSN P9L (APRITFGGLSDSTGSN) the “DMS PSSM value, P (position 9)” value was 0. In the case of APRITFGGPSDSTGSN P9M (APRITFGGMSDSTGSN), the “DMS PSSM value, P (position 9)” value was 0. With APRITFGGPSDSTGSN P9N (APRITFGGNSDSTGSN) the “DMS PSSM value, P (position 9)” value was 0. With APRITFGGPSDSTGSN P9Q (APRITFGGQSDSTGSN) the “DMS PSSM value, P (position 9)” value was 0. APRITFGGPSDSTGSN P9R (APRITFGGRSDSTGSN) was tested, and the “DMS PSSM value, P (position 9)” value was 0. APRITFGGPSDSTGSN P9S (APRITFGGSSDSTGSN) was tested, and the “DMS PSSM value, P (position 9)” value was 0.003052. For APRITFGGPSDSTGSN P9T (APRITFGGTSDSTGSN), the “DMS PSSM value, P (position 9)” value was 0.01557. With APRITFGGPSDSTGSN P9V (APRITFGGVSDSTGSN) the “DMS PSSM value, P (position 9)” value was 0.001999. For APRITFGGPSDSTGSN P9W (APRITFGGWSDSTGSN), the “DMS PSSM value, P (position 9)” value was 0. In the case of APRITFGGPSDSTGSN P9Y (APRITFGGYSDSTGSN), the “DMS PSSM value, P (position 9)” value was 0.04934. With APRITFGGPSDSTGSN R3A (APAITFGGPSDSTGSN) the “DMS PSSM value, R (position 3)” value was 0.0016. In the case of APRITFGGPSDSTGSN R3D (APDITFGGPSDSTGSN), the “DMS PSSM value, R (position 3)” value was 9.037e-5. APRITFGGPSDSTGSN R3E (APEITFGGPSDSTGSN) was tested, and the “DMS PSSM value, R (position 3)” value was 0.01584. APRITFGGPSDSTGSN R3F (APFITFGGPSDSTGSN) was tested, and the “DMS PSSM value, R (position 3)” value was 0.003092. With APRITFGGPSDSTGSN R3G (APGITFGGPSDSTGSN) the “DMS PSSM value, R (position 3)” value was 0.02417. APRITFGGPSDSTGSN R3H (APHITFGGPSDSTGSN) was tested, and the “DMS PSSM value, R (position 3)” value was 0.008447. With APRITFGGPSDSTGSN R3I (APIITFGGPSDSTGSN) the “DMS PSSM value, R (position 3)” value was 0.2843. APRITFGGPSDSTGSN R3K (APKITFGGPSDSTGSN) was tested, and the “DMS PSSM value, R (position 3)” value was 0.0004363. APRITFGGPSDSTGSN R3L (APLITFGGPSDSTGSN) was tested, and the “DMS PSSM value, R (position 3)” value was 0.2826. In the case of APRITFGGPSDSTGSN R3M (APMITFGGPSDSTGSN), the “DMS PSSM value, R (position 3)” value was 0.03758. APRITFGGPSDSTGSN R3N (APNITFGGPSDSTGSN) was tested, and the “DMS PSSM value, R (position 3)” value was 0.0002259. With APRITFGGPSDSTGSN R3P (APPITFGGPSDSTGSN) the “DMS PSSM value, R (position 3)” value was 0.2686. For APRITFGGPSDSTGSN R3Q (APQITFGGPSDSTGSN), the “DMS PSSM value, R (position 3)” value was 0.006747. APRITFGGPSDSTGSN R3S (APSITFGGPSDSTGSN) was tested, and the “DMS PSSM value, R (position 3)” value was 0.004779. For APRITFGGPSDSTGSN R3T (APTITFGGPSDSTGSN), the “DMS PSSM value, R (position 3)” value was 0.001362. APRITFGGPSDSTGSN R3V (APVITFGGPSDSTGSN) was tested, and the “DMS PSSM value, R (position 3)” value was 0.00164. With APRITFGGPSDSTGSN R3W (APWITFGGPSDSTGSN) the “DMS PSSM value, R (position 3)” value was 0.01451. APRITFGGPSDSTGSN R3Y (APYITFGGPSDSTGSN) was tested, and the “DMS PSSM value, R (position 3)” value was 0.03984. In the case of “APRITFGGPSDSTGSN S10A (APRITFGGPADSTGSN)”, the “DMS PSSM value, S (position 10)” value was 0.0189. For “APRITFGGPSDSTGSN S10D (APRITFGGPDDSTGSN)”, the “DMS PSSM value, S (position 10)” value was 0. “APRITFGGPSDSTGSN S10E (APRITFGGPEDSTGSN)” was tested, and the “DMS PSSM value, S (position 10)” value was 0.06961. “APRITFGGPSDSTGSN S10F (APRITFGGPFDSTGSN)” was tested, and the “DMS PSSM value, S (position 10)” value was 0.001618. “APRITFGGPSDSTGSN S10G (APRITFGGPGDSTGSN)” was tested, and the “DMS PSSM value, S (position 10)” value was 0. With “APRITFGGPSDSTGSN S10H (APRITFGGPHDSTGSN)” the “DMS PSSM value, S (position 10)” value was 0. In the case of “APRITFGGPSDSTGSN S10I (APRITFGGPIDSTGSN)”, the “DMS PSSM value, S (position 10)” value was 0.2604. For “APRITFGGPSDSTGSN S10K (APRITFGGPKDSTGSN)”, the “DMS PSSM value, S (position 10)” value was 0.006118. For “APRITFGGPSDSTGSN S10L (APRITFGGPLDSTGSN)”, the “DMS PSSM value, S (position 10)” value was 0.002677. “APRITFGGPSDSTGSN S10M (APRITFGGPMDSTGSN)” was tested, and the “DMS PSSM value, S (position 10)” value was 0.2077.
